Tests used:
[1] = Melting temperature (Tm) of soluble CD4 domains, Prometheus System; format: physicochemical; conditions: soluble CD4 domain with C-terminal 6xHis tag
Method: The best performing variants (SEQ ID NOs: 5-21) were fused with 6×His tag at their C-termini, expressed and purified from mammalian cells using methods as described in Example 1, except that purification was via a Ni-NTA resin (Cytiva, Marlborough MA) instead of Mabselect SuRe column, with standard protocol from the vendor.
These purified CD4 D1 variants (with C-terminal 6xHis tag) were then evaluated to determine their melting temperature (Tm, using Prometheus System, NanoTemper, München Germany), which indicates thermal stability, as well as their anti-viral activity against HIV-1 pseudotyped virus (see Example 2 above for methods using ACTOne cells).

[2] = test system: panel of HIV-1 envelopes (pseudotyped HIV-1 virus); assay: PSV assay (ACTOne cells), HIV-1 envelopes; format: cell-based
Method: (§1) The anti-viral activity of the antigen binding proteins was measured in a pseudotyped virus (PSV) assay.
(§2) PSV was produced in HEK-293T cells (ATCC, Manassas VA) by co-transfecting expression plasmids encoding the HIV-1 gp160 envelope gene and an HIV-1 backbone plasmid using TRANSIT-2020 transfection reagent (Mirus Bio, Madison WI). A panel of HIV-1 PSVs expressing different gp160 envelope trimers was generated to evaluate the effectiveness of the antigen binding proteins of the invention against a wide spectrum of HIV-1 strains.
(§3) The genome of PSV used in this assay contains a luciferase gene that is expressed once the virus enters cells. Accordingly, the luminescence signal (after adding a substrate of luciferase) can be used to determine the level of viral infection.
(§4) The 50% tissue culture infectious dose (TCID) of a single thawed aliquot of each batch of PSV was determined in ACTOne cells. The ACTOne cell-line used in this assay was derived in-house from a genetically engineered 293T cell clone that expresses CD4, CXCR4, and CCR5. Cells were maintained in growth medium composed of Dulbecco's modified Eagle's medium (DMEM, Life Technologies) at 37° C. in a humidified 5% CO2-95% air environment. Cell monolayers were split by treatment with Trypsin-EDTA (0.05%).
(§5) To run the anti-viral assay, ACTOne cells were detached by treating the cell culture flask with trypsin (trypsinization) and resuspended in growth medium containing 2% of DMSO to a density of 2.5×10^5 cells/ml. One hundred μl of such cells was added to 10 μl of antigen binding protein pre-loaded in a 96-well plate. Ninety μl of PSV was then added to each well. The assay plates were incubated at 37° C. in a humidified incubator at 5% CO2 level. Plates were developed after 72 hours of incubation by adding 50 μl of BRIGHTGLO luciferase reagent (Promega, Madison WI) to each well, and transferring the plates to an ENVISION multilabel plate reader (PerkinElmer, Waltham MA) to measure the luminescence and determine the level of virus that had infected the cells. The higher the luminescence signal, the higher the level of infection.

[3] = test system: HIV-2 Env-pseudotypes (HIV-2-AID, HIV-2-ATM88, HIV-2-HCC-01); assay: PSV assay (ACTOne cells), HIV-2 envelopes; format: cell-based
Method: as §1, §2, §3, §4, §5
HIV-2 differs from HIV-1 in that it originates from the transmission of simian immunodeficiency virus (SIV) from sooty mangabeys (SIVsmm) to human (Gao et al, J Virol. 1994; 68 (11): 7433-7447) whilst HIV-1 stems from the transmission from chimpanzees and western gorillas (HIV-1 group M and O, respectively). HIV-2 can also cause AIDS but is far less pathogenic and wide-spread than HIV-1 (de Silva et al, Trends Microbiol. 2008; 16 (12): 588-595; Da Silva et al, AIDS. 2008; 22 (10): 1195-1202). Though also using CD4 for infection (Sattentau et al, AIDS. 1988; 2 (2): 101-105), HIV-2 shares only 40% identity in the gp160 amino acid sequence with HIV-1, and is therefore less sensitive or insensitive to HIV-1 envelope-directed bnAbs (Kong et al, JVI 2012; 86 (2): 947-960).

[4] = test system: HIV NL4-3 virus; assay: In vitro resistance barrier (viral breakthrough in MT2 cells); format: cell-based, HIV-1; conditions: HIV NL4-3 in MT2 cells
Method: To assess the resistance barrier of the bispecific molecules, we examined the relative rates at which HIV NL4-3 virus can escape inhibition by a panel of antibodies versus a DMSO control.
MT2 cells (2.0×10^5/well in RPMI 1640+[…] penicillin and streptomycin+10 mM HEPES buffer pH 7.55+2 mM L-glutamine. +0.2% DMSO) were pre-infected at an MOI (multiplicity of infection) of 0.005 for 2.5 hours and then pelleted to remove unbound virus particles. One mL of infected cells was added to each well of a 24 well plate.
Every 3-4 days images of the wells were captured and 1 ml of each well is removed and replaced by fresh preparations of each condition. This process was continued until there was viral breakthrough (observed cytopathic effect (CPE)>80%) or until there was a confirmed elimination of infected cells (via challenged elimination). When either condition was achieved, the sample was collected as pellet and supernatant (via centrifugation) and stored at −80° C. until genotypic analysis was performed to confirm the presence of resistance mutations. The days from infection to breakthrough were used to estimate the resistance barrier of a certain molecule. The longer it takes the virus to develop CPE, which indicates resistance, the higher the resistance barrier is.

[5] = test system: NL4-3 (NLRepRluc replicating reporter virus); assay: Replicating virus assay using NLRepRluc virus (NL4-3) in MT-2 cells; format: cell-based, HIV-1; conditions: NL4-3, replicating virus assay
Text: All clinical and laboratory isolates were originally obtained from the NIH AIDS Reagent Program (currently NIH HIV Reagent Program, https:hivreagentprogram.org/). The proviral clone of NL4-3 (obtained from NIH) was used to make the replicating reporter virus NLRepRluc, in which a section of the nef gene from the proviral clone of NL4-3 was replaced with the Renilla luciferase gene. Virus was produced through transfection of HEK293T cells using Lipofectamine Plus (Invitrogen, Carlsbad, CA), according to the manufacturer's instructions. […]
The NLRepRluc was used to infect MT-2 cells at a multiplicity of 0.01 for 1 hour before adding the proteins to the 96-well plates. […] After 4 days of incubation, cells were processed and quantitated for virus growth by the amount of expressed luciferase. Luciferase was quantitated using the ENDUREN substrate from Promega (Madison, WI) according to the manufacturer's instructions. Luciferase activity was measured immediately on an ENVISION multilabel plate reader (PerkinElmer, Waltham MA). EC50 values were calculated by comparing the amount of luciferase produced in the presence of antigen binding protein compared to wells where no antigen binding protein (DMSO control) was added. […]

[6] = envelope CAP45.2.00.G3, PSV assay
[7] = envelope HIV-2-AID, PSV assay, ACTOne cells
[8] = envelope HIV-2-ATM88, PSV assay
[9] = envelope HIV-2-HCC-01, PSV assay
[10] = envelope X1632_S2_B10, PSV assay

D1m-E13C-I70C: soluble CD4 D1 variant of mD1.22 with E13C and I70C, SEQ ID NO:13, 6xHis tagged
Tm (° C.) [1]: 78.8 °C

D1m-E87G: soluble CD4 D1 variant of mD1.22 with E87G, SEQ ID NO:8, 6xHis tagged [Molecule D1m-E87G]
Tm (° C.) [1]: 71.9 °C

D1m-E91H: soluble CD4 D1 variant of mD1.22 with E91H, SEQ ID NO:7, 6xHis tagged [Molecule D1m-E91H]
Tm (° C.) [1]: 72.6 °C

D1m-E91Q: soluble CD4 D1 variant of mD1.22 with E91Q, SEQ ID NO:6, 6xHis tagged [Molecule D1m-E91Q]
Tm (° C.) [1]: 72.4 °C

D1m-H27C-G38C: soluble CD4 D1 variant of mD1.22 with H27C and G38C, SEQ ID NO:14, 6xHis tagged
Tm (° C.) [1]: 90.1 °C

D1m-K8C-G99C: soluble CD4 D1 variant of mD1.22 with K8C and G99C, SEQ ID NO:11, 6xHis tagged [Molecule D1m-K8C-G99C]
Tm (° C.) [1]: 88.8 °C

D1m-K8C-G99C_Fc: CD4 D1m-K8C-G99C domain fused to human Fc, SEQ ID NO:158; CD4 control
IC50 ([2]; envelope 93UG065, PSV assay): 143 nM
IC50 ([2]; envelope 246F3, PSV assay): 4.28 nM
IC50 ([2]; envelope 0260.v5.c36, PSV assay): 119 nM
IC50 ([2]; envelope 398F1, PSV assay): 90.5 nM
IC50 ([2]; envelope 928_28, PSV assay): 0.77 nM
IC50 ([2]; envelope 3326_V4_C3): > 500 nM
IC50 ([2]; envelope 3326_V4_C3, PSV assay): > 500 nM
IC50 ([2]; envelope 3468_V1_C12): 64.2 nM
IC50 ([2]; envelope 3468_V1_C12, PSV assay): 64.2 nM
IC50 ([2]; envelope 3637_V5_C3): > 500 nM
IC50 ([2]; envelope 3637_V5_C3, PSV assay): > 500 nM
IC50 ([2]; envelope 6471_V1_C16, PSV assay): 5.07 nM
IC50 ([2]; envelope 25710, PSV assay): 1.32 nM
IC50 ([2]; envelope 42368): 1.58 nM
IC50 ([2]; envelope 42368, PSV assay): 1.58 nM
IC50 ([2]; envelope 620345_C1, PSV assay): 99.3 nM
IC50 ([2]; envelope BJOX2000, PSV assay): 2.34 nM
IC50 ([2]; envelope CAP45.2.00.G3): 20.5 nM
IC50 [2, 6]: 20.5 nM
IC50 ([2]; envelope CC1/85): 1.98 nM
IC50 ([2]; envelope CC1/85, PSV assay): 1.98 nM
IC50 ([2]; envelope CE0217, PSV assay): 2.53 nM
IC50 ([2]; envelope CE1176, PSV assay): 4.22 nM
IC50 ([2]; envelope CH119, PSV assay): 3.25 nM
IC50 ([2]; envelope CNE8, PSV assay): 347 nM
IC50 ([2]; envelope CNE55, PSV assay): 41.8 nM
IC50 ([2]; envelope JR-CSF, PSV assay): 5.47 nM
IC50 ([2]; envelope JRFL, PSV assay): 1.12 nM
IC50 ([2]; envelope Q461_E2): 11.8 nM
IC50 ([2]; envelope Q461_E2, PSV assay): 11.8 nM
IC50 ([2]; envelope T278.50): 1.43 nM
IC50 ([2]; envelope T278.50, PSV assay): 1.43 nM
IC50 ([2]; envelope TH976_17, PSV assay): 39 nM
IC50 ([2]; envelope TRO11, PSV assay): 147 nM
IC50 ([2]; envelope X1632, PSV assay): 1.82 nM
IC50 ([2]; envelope X2088.C9): 9.2 nM
IC50 ([2]; envelope X2088.C9, PSV assay): 9.2 nM
IC50 ([2]; envelope X2278, PSV assay): 44.6 nM
IC50 ([2]; envelope YU-2, PSV assay): 0.2 nM
IC50 ([2]; envelope ZM106.9): 15.1 nM
IC50 ([2]; envelope ZM106.9, PSV assay): 15.1 nM
IC50 [3, 7]: 24.4 nM
IC50 [3, 8]: 2.72 nM
IC50 ([3]; envelope HIV-2-HCC-01, ACTOne cells): > 300 nM
IC50 [3, 9]: > 300 nM

D1m-K8I: soluble CD4 D1 variant of mD1.22 with K8I, SEQ ID NO:10, 6xHis tagged [Molecule D1m-K8I]
Tm (° C.) [1]: 75.9 °C

D1m-K8V: soluble CD4 D1 variant of mD1.22 with K8V, SEQ ID NO:5, 6xHis tagged [Molecule D1m-K8V]
Tm (° C.) [1]: 77.1 °C

D1m-K21C-G65C: soluble CD4 D1 variant of mD1.22 with K21C and G65C, SEQ ID NO:15, 6xHis tagged
Tm (° C.) [1]: 80.1 °C

D1m-N52W: soluble CD4 D1 variant of mD1.22 with N52W, SEQ ID NO:9, 6xHis tagged [Molecule D1m-N52W]
Tm (° C.) [1]: 72 °C

D1m-T11C-K72C: soluble CD4 D1 variant of mD1.22 with T11C and K72C, SEQ ID NO:12, 6xHis tagged
Tm (° C.) [1]: 79.9 °C

D1mD2_His: soluble CD4 D1D2 variant mD1.22-D2 (SEQ ID NO:2) plus C-terminal 6xHis tag [Molecule D1mD2_His, reference compound]
IC50 ([2]; envelope 42368, PSV assay): 7.29 nM
IC50 ([2]; envelope BJOX2000, PSV assay): 33.4 nM
IC50 [2, 6]: > 500 nM
IC50 ([2]; envelope CH119, PSV assay): 120 nM
IC50 ([2]; envelope HXB2, PSV assay): 0.07 nM
IC50 ([2]; envelope LAI, PSV assay): 5.41 nM
IC50 ([2]; envelope NL4-3, PSV assay): 0.74 nM
IC50 ([2]; envelope T278.50, PSV assay): 16 nM
IC50 ([2]; envelope TRO11, PSV assay): 17.3 nM
IC50 [2, 10]: 14.9 nM

D1m_His: soluble human CD4 D1 variant mD1.22 (SEQ ID NO:4) plus C-terminal 6xHis tag [Molecule D1m_His, reference compound]
IC50 ([2]; envelope 42368, PSV assay): 4.32 nM
IC50 ([2]; envelope BJOX2000, PSV assay): 70.9 nM
IC50 [2, 6]: 131 nM
IC50 ([2]; envelope CC1/85, PSV assay): 7.02 nM
IC50 ([2]; envelope CH119, PSV assay): 90.7 nM
IC50 ([2]; envelope LAI, PSV assay): 8.79 nM
IC50 ([2]; envelope T278.50, PSV assay): 3.99 nM
IC50 ([2]; envelope TRO11, PSV assay): 68.4 nM
IC50 [2, 10]: 16.2 nM
IC50 ([2]; envelope ZM106.9, PSV assay): 26 nM
Average days before CPE ([4]; group 20x EC50): 4 days
Average days before CPE ([4]; group 30x EC50): 5 days
Average days before CPE ([4]; group 40x EC50): 7 days
Tm (° C.) [1]: 68.2 °C
EC50 [5]: 0.23 nM
IC50 [3, 7]: 104 nM
IC50 [3, 8]: 3.93 nM
IC50 [3, 9]: > 500 nM

From patent US12583911B2, “Human immunodeficiency virus GP120 binding proteins” (ViiV Healthcare UK (No.5) Limited, priority 2022, dated 2026)
